Patent US20110220154A1, “Dental Appliance Cleanser” (priority 2008, published 2011)

Test system: Candida albicans
Assay: in vitro suspension test representing in-use conditions
Type: cell-based
Details: 5 min
Procedure: The synergistic activity of the cleanser formulation was assessed using an in vitro suspension test representing in-use conditions. In-use conditions represent the actual consumer use of the cleanser (e.g., dissolved tablet concentrations, temperature, and contact time) versus Candida albicans as a relevant oral organism for the denture wearer. To 150 mL of 40° C. water at time zero, the denture cleanser was added, followed by 2 mL of a 10^8 cfu/mL test suspension. After 5 minutes, an aliquot of the solution was removed, neutralized and plated in order to evaluate the amount or log reduction of the test organism.

SMILES: [H]/N=C(\N/C(=N/[H])NCCCCCCNC(=N)NC(=N)Nc1ccc(Cl)cc1)Nc1ccc(Cl)cc1 [Test Formulation 4, 1,6-di-4′-chlorophenyldiguanidohexane]
- antimicrobial activity: does not demonstrate any antimicrobial activity
